What all share (type): cell-based
Data set [1] relates to neuroblastoma cells. The data set can be described thus: mitochondrial DNA damage in neuroblastoma cells (RT-qPCR, TaqI cleavage). The settings on record: 10 μM compound, 24 hours, high glucose (20 mM); FIG. 3. The procedure: In this study, neuroblastoma cells were cultivated at near confluency (50-75%) in DMEM/F12/10% serum high glucose (20 mM) supplied with 10 μM BIZ-101 or BIZ-105 for 24 hours prior to analyses. These conditions readily induce mtDNA damage that is representative of that accumulating during aging as the result of age-associated oxidative stress.
For DNA damage analyses, cells were washed, and DNA isolated using Qiagen Blood&Tissue DNA isolation kit. DNA damage level was analyzed by a RT-qPCR method based on the ability of DNA lesions to inhibit restriction enzyme cleavage, as described previously (http://www.ncbi.nlm.nih.gov/pubmed/25631007) using primers 5′-[…]-3′ and 5′-[…]-3′ (sense and anti sense, respectively). Briefly, genomic DNA (6 ng) was treated with 1 U TaqI for 15 min at 65° C. DNA damage frequency was calculated as 2exp−(ctTaql−ctnt), where ctTaql and ctnt represent CT values of TaqI-treated and non-treated genomic DNA, respectively.

The subject of data set [2] is NF-κB pathway. Description: NF-κB luciferase reporter assay in NF-κB Reporter-HEK293 cells, TNFa stimulated. Particulars: FIG. 5. The source says: The NF-κB reporter (luc)-HEK293 cell line is designed for monitoring the nuclear factor Kappa B (NF-κB) signal transduction pathways. It contains a firefly luciferase gene driven by four copies of NF-κB response element located upstream of the minimal TATA promoter. After activation by pro-inflammatory cytokines or stimulants of lymphokine receptors, endogenous NF-κB transcription factors bind to the DNA response elements, inducing transcription of the luciferase reporter gene.
NF-κB Reporter-HEK293 cells were cultured in MEM medium with 10% FBS, 1% non-essential amino acids, 1 mM Na-pyruvate, 1% Penn-strep, and 100 µg/ml of Hygromycin B.
To perform the NF-κB luciferase reporter assay, NF-κB Reporter-HEK293 cells were seeded at 40,000 cells per well into white clear-bottom 96-well microplate in 45 μl of growth medium without Hygromycin B. Cells were incubated at 37° C. and 5% CO2 overnight to allow them to recover and reattach. The following day a series of dilutions of compounds were made in assay medium (MEM medium with 0.5% FBS, 1% non-essential amino acids, 1 mM Na-pyruvate, 1% Penn-strep). The medium was removed from the wells and 45 μl of diluted compound was added to the cells. Assay medium with DMSO was added to the untreated control wells and cell-free control wells. The final concentration of DMSO was 0.25%. The cells were incubated overnight at 37° C. in CO2 incubator. […]
After treatment, cells were then lysed and a luciferase assay was performed using the ONE-Step luciferase assay system. […] Luminescence was measured using a luminometer (BioTek Synergy™ 2 microplate reader).
Reporter assays were performed in triplicate at each concentration. The luminescence intensity data were analyzed using the computer software, Graphpad Prism. In the absence of the compound, the luminescence intensity (Lt) in each data set was defined as 100%. In the absence of cells, the luminescence intensity (Lb) in each data set was defined as 0%. The percent luminescence in the presence of each compound was calculated according to the following equation: % Luminescence=(L−Lb)/(Lt−Lb), where L=the luminescence intensity in the presence of the compound, Lb=the luminescence intensity in the absence of cells, and Lt=the luminescence intensity in the absence of the compound. The values of % luminescence versus a series of compound concentrations were then plotted using non-linear regression analysis of a Sigmoidal dose-response curve generated with the equation Y=B+(T B)/1+10^((Log EC50-X)×Hill Slope), where Y=percent luminescence, B=minimum percent luminescence, T=maximum percent luminescence, X=logarithm of compound and Hill Slope=slope factor or Hill coefficient. The IC50 value was determined by the concentration causing a half-maximal percent activity.

For data set [3], the system named is ARPE-19 cells. The data set can be described thus: oxidative stress (tert-butyl hydroperoxide) cytolysis assay in ARPE-19 retinal pigment epithelial cells. The procedure: In order to evaluate the potential of BIZ-101 to protective the eye from oxidative stress damage the compound was tested in a cell based assay. Oxidative stress was induced in an ARPE-19 cell line using tert-butyl hydroperoxide at different concentrations. The cellular viability was kinetically monitored and measured by analysing the plasma membrane integrity based on the incorporation of a non-permeant and fluorescent DNA intercalating agent that selectively stain cytolytic cells with comprised plasma membranes.
(§1) The ARPE-19 cell line was seeded and cultured in DMEM-F12 medium+10% SVF for 24 hrs in a 96 well plate. Cells were pre-treated or not with either fenofibric acid (25 μM) or compound BIZ-101 (10 μM) during this 24 hr period. After 24 hrs, the different concentrations of t-butyl hydroperoxide were added in the presence of a fluorescent DNA intercalating agent for the following monitoring. Live content time-lapse imaging was performed with a sampling rate of 1 image every 2 hr over a 96 hrs period. The number of fluorescent/cytolytic cells were counted and reported during the experiment. The treatment conditions were tested in one experiment session in a triplicate format.
Fenofibric acid was used at 25 μM and was ordered from Sigma Aldrich. The day of the pre-treatment, a 25 mM stock solution of fenofibric acid was prepared in DMSO and diluted in the complete culture medium at 25 μM. 100 μL of this solution or 100 μL of complete culture medium+0.1% DMSO replaced the 100 μL of the complete culture medium already present in the well. The day of the treatment with t-butyl hydroperoxide, a 2 times concentrated solution of fenofibric acid was freshly diluted in the complete culture medium and 50 μL of this solution or 50 μL of complete culture medium+0.2% DMSO were added to the 100 μL of the culture medium already present in the well.
Compound BIZ-101 was tested at a final concentration of 10 μM. A 10 mM predilution was prepared in DMSO from a 10 mM stock solution. The 10 mM solution of BIZ 101 was diluted in the complete culture medium at 10 μM. 100 μL, of this solution or 100 μL of the complete culture medium+0.1% DMSO replaced the 100 μL, of the complete culture medium already present in the well. The day of the treatment with t-butyl hydroperoxide, a 2 times concentrated solution of BIZ 101 was freshly diluted in the complete culture medium and 50 μL of this solution or 50 μL of complete culture medium+0.2% DMSO were added to the 100 μL of the culture medium already present in the well.
Preparation of the tert-butyl hydroperoxide [tBHP] solution: 0, 0.01 mM, 0.03 mM, 0.1 mM, 0.3 mM, 1 mM, 3 mM and 10 mM. A 4 times concentrated solution of tBHP was freshly diluted in the complete culture medium for each of the concentrations to be tested. 50 μL of the 4 times concentrated solution was added to the 150 μL of the cultured medium.
In order to evaluate the potential of BIZ-102 to protect the eye from oxidative stress damage the compound was tested in a cell based assay similar to Example 24 with the following changes. The oxidative stress in the ARPE-19 cell line was induced by using 3 different concentrations of tBHP: 10 μM, 30 μM and 100 μM and BIZ-102 was tested in 2 different concentrations: 1 μM and 10 μM.
as §1, with “with” for “with either fenofibric acid (25 μM) or”, “BIZ-102 (1 μM and 10” for “BIZ-101 (10”
Compound BIZ-102 was tested at a final concentration of 1 and 10 μM. […]

Data set [4] deals with T1, human PPARα (Homo sapiens, UniProt Q07869).
T1 construct: expressed in transfected cells
T1 sequence (Q07869 239-466 limits assumed): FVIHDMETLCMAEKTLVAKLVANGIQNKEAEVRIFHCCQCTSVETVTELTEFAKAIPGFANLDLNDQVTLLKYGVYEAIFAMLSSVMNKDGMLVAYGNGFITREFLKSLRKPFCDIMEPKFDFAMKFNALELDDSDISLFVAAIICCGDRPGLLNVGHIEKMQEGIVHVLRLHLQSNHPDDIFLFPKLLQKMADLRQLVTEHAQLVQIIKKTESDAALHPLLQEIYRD
Description: stable reporter HeLa cell line, GAL4-PPARα ligand activity. Particulars: 5 μM compound, relative to 1 μM GW7647; FIG. 6. The text has this: (§2) To screen the human PPARα, PPARδ and PPARγ ligand activity of the compounds a stable reporter cell line was used (HeLa cell line). The stable reporter cell line express respectively a chimeric protein containing the ligand binding domain (LBD) of human PPARα, human PPARδ and human PPARγ fused to the yeast transactivator GAL4 DNA binding domain (DBD). The luciferase (Luc) reporter gene is driven by a pentamer of the GAL4 recognition sequence in front of a β-globin promoter. The use of GAL4-PPARα, GAL4-PPARδ and GAL4-PPARγ chimeric receptors allows for elimination of background activity from endogenous receptors and quantification of relative activity across the three PPAR subtypes with the same reporter gene. […] Luciferase activity was measured by a luminometer and luciferase activity was expressed as relative light units (RLU).
Day 1: Seed 96—well plate with PPAR cells. Cell appearance was checked using optical microscopy. Cells were cultivated at confluency (80-100%).
Day 2: The test articles dissolved in DMSO were added to the cells. The controls (positive controls and the solvent control) were included in each individual plate. […]
Day 3: To determine the PPAR subtype activity of the tested compounds, the percentage of PPAR ligand activity was calculated for each tested compound as follows: […]

Data set [5] concerns the target T2, human PPARγ (Homo sapiens, UniProt P37231).
T2 construct: expressed in transfected cells
T2 sequence (P37231 238-503 limits assumed): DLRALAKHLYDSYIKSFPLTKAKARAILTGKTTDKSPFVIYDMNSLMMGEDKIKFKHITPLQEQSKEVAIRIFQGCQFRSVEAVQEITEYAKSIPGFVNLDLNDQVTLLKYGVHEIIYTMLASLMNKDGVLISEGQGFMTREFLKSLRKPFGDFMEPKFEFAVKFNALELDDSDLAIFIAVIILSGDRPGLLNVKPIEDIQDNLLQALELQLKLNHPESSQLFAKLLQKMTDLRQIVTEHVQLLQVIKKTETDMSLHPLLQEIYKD
The data set can be described thus: stable reporter HeLa cell line, GAL4-PPARγ ligand activity. Particulars: 5 μM compound, relative to 1 μM BRL49653; FIG. 7.
Excerpt: as §2
Day 1: Seed 96—well plate with PPAR cells. Cell appearance was checked using optical microscopy. Cells were cultivated at confluency (80-100%). […]
Day 3: To determine the PPAR subtype activity of the tested compounds, the percentage of PPAR ligand activity was calculated for each tested compound as follows:
Percentage of PPARγ activity for the tested compound in 5 μM concentration=(RLUXcomp×100)/RLUBRL49653 where RLUBRL49653 is the luminescence measured from PPARγ cells incubated with 1 μM […] and expressed as Relative Light Units. […]

In the case of `CC/C=C\C/C=C\C/C=C\C/C=C\C/C=C\CCC(CC)C(=O)O` (stereo not shown) [BIZ-101, 2-ethyleicosa-(all-Z)-5,8,11,14,17-pentaenoic Acid], in data set [1], the mtDNA damage result is given as “reduced mtDNA damage”. Further, in data set [2], the “dose dependence of inhibitory effect on the NF-κB pathway” value is given as “dose dependent”. For the same compound, the “complete inhibition of the NF-κB pathway” value in data set [2] (at high concentration) is on record as “completely inhibited”. Further, the “dose dependent cytotoxicity of tBHP” value in data set [3] (6 hrs after addition of tBHP, 24 hr pre-treatment, fenofibric acid 25 μM, BIZ-101 10 μM) is given as “slightly decreased”. In addition, in data set [3] (24 hrs after addition of t-BHP, fenofibric acid 25 μM, BIZ-101 10 μM), the “protective effects against tBHP cytotoxicity” value was “more efficient”. The “protective effect compared with fenofibric acid” value in data set [3] (BIZ-101 10 μM vs fenofibric acid 25 μM) was “much more potent”. Moreover, the “effect on retinal pigment epithelial cells during conditions of oxidative stress” value in data set [3] (overall conclusion) was “protective effect”.
In the case of `CC/C=C\C/C=C\C/C=C\C/C=C\C/C=C\C/C=C\CC(C)C(=O)O` (stereo not shown) [BIZ-105, 2-methyldocosa-(all-Z)-4,7,10,13,16,19-hexaenoic Acid], in data set [1], the mtDNA damage result is given as “slightly reduced level of mtDNA damage”.
Regarding `CC/C=C\C/C=C\C/C=C\C/C=C\C/C=C\CCOCC(=O)O` [BIZ-108, 3-oxa-(6Z,9Z,12Z,15Z,18Z)-heneicosa-(6,9,12,15,18)-pentaenoic Acid], the PPARα activity result in data set [4] was “all compounds except BIZ-108 had potent activity”. Besides, the PPARγ activation result in data set [5] is on record as “activated PPARγ except for the unsubstituted derivative BIZ-108”.
